Measured values published in PMC12508057, “Discovery of ETI41 and ETI60: novel selective endosomal Toll-like receptor inhibitors for the treatment of autoimmune diseases” (Experimental & Molecular Medicine, 2025).

Test system: TLR7- and TLR9-dependent downstream signaling
Test: Western blot of TLR7- and TLR9-dependent downstream signaling in RAW 264.7
Type: cell-based, mouse
Details: RAW 264.7, 5 or 10 μM
Description: RAW 264.7 cells were seeded into 60-mm dishes at 1 × 10^6 cells per dish. After 30 min of treatment with ETI41 or ETI60, the cells were stimulated with 2 μM IMQ (a TLR7 agonist) or 1 μM ODN2395 (a TLR9 agonist). Lysates were prepared using a Mammalian Protein Extraction Kit (Thermo Fisher Scientific) with protease and phosphatase inhibitors. Nuclear proteins were extracted using an NE-PER Nuclear and Cytoplasmic Extraction Kit (Thermo Fisher Scientific). Proteins were quantified using a bicinchoninic acid kit (Sigma-Aldrich), separated by SDS–PAGE and transferred onto nitrocellulose membranes (GE Healthcare). Membranes were incubated with specific primary antibodies and horseradish peroxidase-conjugated secondary antibodies. […] Protein bands were detected using a chemiluminescent substrate (SuperSignal West Pico PLUS; Thermo Fisher Scientific) and visualized using a Fuji LAS-3000 system (Fujifilm).
Fig. 2 ETI41 and ETI60 inhibit TLR7- and TLR9-dependent downstream signaling. a, b Western blot analysis was used to quantify the protein levels of phosphorylated p-ERK, p-JNK, p38, Iκ-Bα and p65. […] Statistical differences between the induced and other cases were analyzed and verified using a one-tailed Student’s t-test (*P < 0.05, **P < 0.01, ***P < 0.001). e–g The TLR7 agonist IMQ (1 μM) was used in 3’ RNA-seq analysis to induce signaling associated with immune responses in RAW 264.7 cells. […]

SMILES | IMQ- or ODN2395-induced phosphorylation of MAPKs (p-ERK, p-JNK, p-p38), nuclear translocation of NF-κB p65, Iκ-Bα degradation and IRF7 expression
COc1ccc2c3c(N)c4c(nc3n(CCCN(C)C)c2c1)CCCC4 [ETI60] | inhibited
Cc1cc2c(N)c3c(nc2n1CCCN(C)C)CCCCCC3 [ETI41] | inhibited
